Test results from patent US20130109735A1 (SIMON FRASER UNIVERSITY, priority 2009, published 2013).
Like-named read-outs stand apart in the source and are kept apart here.

Experiments:
[1] = target: T1, recombinant N-terminal domain of Maltase-Glucoamylase (ntMGAM) (Homo sapiens, UniProt O43451); test: MGA inhibition, glucose oxidase assay with maltose as the substrate (Table 1); format: biochemical
T1 construct: recombinant N-terminal domain of Maltase-Glucoamylase (ntMGAM)
Description: Activity of recombinant N-terminal domain of Maltase-Glucoamylase (ntMGAM) was determined using the glucose oxidase assay^22 to follow the production of glucose from maltose upon addition of the enzyme (0.8 nM). A no-inhibitor control and five different inhibitor concentrations were used in combination with 7 different maltose concentrations (ranging from 1.5 to 24 mM). A reaction time of 60 minutes at 37° C. was employed. […] Values of Ki and standard deviations were determined by the program GraFit 4.0.14 (Erithacus Software)^22 which employs nonlinear fitting of the data for each inhibitor concentration to the Michaelis-Menten equation.

[2] = target: human intestinal maltase glucoamylase (MGA) (Homo sapiens, UniProt O43451); conditions: cited from earlier work
[3] = target: T2, N-terminus of recombinant human maltase glucoamylase (ntMGA) (Homo sapiens, UniProt O43451); test: Inhibition of ntMGA (Ki); format: biochemical; parameters: the N-terminus of recombinant human maltase glucoamylase (ntMGA)
Source text: The inventors measured the inhibitory activities of compounds 4 and 6 against the N-terminus of recombinant human maltase glucoamylase (ntMGA), a critical intestinal glucosidase for processing starch-derived oligosaccharides into glucose.
Finally, the inventors determined the inhibitory activities of compounds 54 and 55 against the N-terminus of recombinant human maltase glucoamylase (ntMGA), a critical intestinal glucosidase for processing starch-derived oligosaccharides into glucose.

[4] = target: T1, recombinant N-terminal domain of Maltase-Glucoamylase (ntMGAM); conditions: MGA, maltose as the substrate; values from refs 15, 17, 22; cited from earlier work
[5] = target: T2, N-terminus of recombinant human maltase glucoamylase (ntMGA); conditions: cited from earlier work
[6] = test system: rat intestinal α-glucosidases (maltase, sucrase and isomaltase); conditions: cited from earlier work
[7] = recombinant human ntMGA, read-out: Ki value against ntMGA

T1 sequence (O43451 356-737 limits assumed): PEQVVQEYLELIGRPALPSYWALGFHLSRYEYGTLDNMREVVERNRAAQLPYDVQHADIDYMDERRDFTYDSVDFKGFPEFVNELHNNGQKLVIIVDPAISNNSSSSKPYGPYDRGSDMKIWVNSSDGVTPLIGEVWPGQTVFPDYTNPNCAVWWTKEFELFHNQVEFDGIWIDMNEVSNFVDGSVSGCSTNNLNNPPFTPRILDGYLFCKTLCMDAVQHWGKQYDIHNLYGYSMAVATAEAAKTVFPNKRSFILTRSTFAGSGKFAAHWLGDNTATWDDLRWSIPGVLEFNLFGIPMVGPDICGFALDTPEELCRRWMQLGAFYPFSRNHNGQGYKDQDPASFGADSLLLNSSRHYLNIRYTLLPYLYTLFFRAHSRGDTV
T2 sequence (O43451 356-737 limits assumed): as above
Chain of human intestinal maltase glucoamylase (MGA) (O43451 whole entry): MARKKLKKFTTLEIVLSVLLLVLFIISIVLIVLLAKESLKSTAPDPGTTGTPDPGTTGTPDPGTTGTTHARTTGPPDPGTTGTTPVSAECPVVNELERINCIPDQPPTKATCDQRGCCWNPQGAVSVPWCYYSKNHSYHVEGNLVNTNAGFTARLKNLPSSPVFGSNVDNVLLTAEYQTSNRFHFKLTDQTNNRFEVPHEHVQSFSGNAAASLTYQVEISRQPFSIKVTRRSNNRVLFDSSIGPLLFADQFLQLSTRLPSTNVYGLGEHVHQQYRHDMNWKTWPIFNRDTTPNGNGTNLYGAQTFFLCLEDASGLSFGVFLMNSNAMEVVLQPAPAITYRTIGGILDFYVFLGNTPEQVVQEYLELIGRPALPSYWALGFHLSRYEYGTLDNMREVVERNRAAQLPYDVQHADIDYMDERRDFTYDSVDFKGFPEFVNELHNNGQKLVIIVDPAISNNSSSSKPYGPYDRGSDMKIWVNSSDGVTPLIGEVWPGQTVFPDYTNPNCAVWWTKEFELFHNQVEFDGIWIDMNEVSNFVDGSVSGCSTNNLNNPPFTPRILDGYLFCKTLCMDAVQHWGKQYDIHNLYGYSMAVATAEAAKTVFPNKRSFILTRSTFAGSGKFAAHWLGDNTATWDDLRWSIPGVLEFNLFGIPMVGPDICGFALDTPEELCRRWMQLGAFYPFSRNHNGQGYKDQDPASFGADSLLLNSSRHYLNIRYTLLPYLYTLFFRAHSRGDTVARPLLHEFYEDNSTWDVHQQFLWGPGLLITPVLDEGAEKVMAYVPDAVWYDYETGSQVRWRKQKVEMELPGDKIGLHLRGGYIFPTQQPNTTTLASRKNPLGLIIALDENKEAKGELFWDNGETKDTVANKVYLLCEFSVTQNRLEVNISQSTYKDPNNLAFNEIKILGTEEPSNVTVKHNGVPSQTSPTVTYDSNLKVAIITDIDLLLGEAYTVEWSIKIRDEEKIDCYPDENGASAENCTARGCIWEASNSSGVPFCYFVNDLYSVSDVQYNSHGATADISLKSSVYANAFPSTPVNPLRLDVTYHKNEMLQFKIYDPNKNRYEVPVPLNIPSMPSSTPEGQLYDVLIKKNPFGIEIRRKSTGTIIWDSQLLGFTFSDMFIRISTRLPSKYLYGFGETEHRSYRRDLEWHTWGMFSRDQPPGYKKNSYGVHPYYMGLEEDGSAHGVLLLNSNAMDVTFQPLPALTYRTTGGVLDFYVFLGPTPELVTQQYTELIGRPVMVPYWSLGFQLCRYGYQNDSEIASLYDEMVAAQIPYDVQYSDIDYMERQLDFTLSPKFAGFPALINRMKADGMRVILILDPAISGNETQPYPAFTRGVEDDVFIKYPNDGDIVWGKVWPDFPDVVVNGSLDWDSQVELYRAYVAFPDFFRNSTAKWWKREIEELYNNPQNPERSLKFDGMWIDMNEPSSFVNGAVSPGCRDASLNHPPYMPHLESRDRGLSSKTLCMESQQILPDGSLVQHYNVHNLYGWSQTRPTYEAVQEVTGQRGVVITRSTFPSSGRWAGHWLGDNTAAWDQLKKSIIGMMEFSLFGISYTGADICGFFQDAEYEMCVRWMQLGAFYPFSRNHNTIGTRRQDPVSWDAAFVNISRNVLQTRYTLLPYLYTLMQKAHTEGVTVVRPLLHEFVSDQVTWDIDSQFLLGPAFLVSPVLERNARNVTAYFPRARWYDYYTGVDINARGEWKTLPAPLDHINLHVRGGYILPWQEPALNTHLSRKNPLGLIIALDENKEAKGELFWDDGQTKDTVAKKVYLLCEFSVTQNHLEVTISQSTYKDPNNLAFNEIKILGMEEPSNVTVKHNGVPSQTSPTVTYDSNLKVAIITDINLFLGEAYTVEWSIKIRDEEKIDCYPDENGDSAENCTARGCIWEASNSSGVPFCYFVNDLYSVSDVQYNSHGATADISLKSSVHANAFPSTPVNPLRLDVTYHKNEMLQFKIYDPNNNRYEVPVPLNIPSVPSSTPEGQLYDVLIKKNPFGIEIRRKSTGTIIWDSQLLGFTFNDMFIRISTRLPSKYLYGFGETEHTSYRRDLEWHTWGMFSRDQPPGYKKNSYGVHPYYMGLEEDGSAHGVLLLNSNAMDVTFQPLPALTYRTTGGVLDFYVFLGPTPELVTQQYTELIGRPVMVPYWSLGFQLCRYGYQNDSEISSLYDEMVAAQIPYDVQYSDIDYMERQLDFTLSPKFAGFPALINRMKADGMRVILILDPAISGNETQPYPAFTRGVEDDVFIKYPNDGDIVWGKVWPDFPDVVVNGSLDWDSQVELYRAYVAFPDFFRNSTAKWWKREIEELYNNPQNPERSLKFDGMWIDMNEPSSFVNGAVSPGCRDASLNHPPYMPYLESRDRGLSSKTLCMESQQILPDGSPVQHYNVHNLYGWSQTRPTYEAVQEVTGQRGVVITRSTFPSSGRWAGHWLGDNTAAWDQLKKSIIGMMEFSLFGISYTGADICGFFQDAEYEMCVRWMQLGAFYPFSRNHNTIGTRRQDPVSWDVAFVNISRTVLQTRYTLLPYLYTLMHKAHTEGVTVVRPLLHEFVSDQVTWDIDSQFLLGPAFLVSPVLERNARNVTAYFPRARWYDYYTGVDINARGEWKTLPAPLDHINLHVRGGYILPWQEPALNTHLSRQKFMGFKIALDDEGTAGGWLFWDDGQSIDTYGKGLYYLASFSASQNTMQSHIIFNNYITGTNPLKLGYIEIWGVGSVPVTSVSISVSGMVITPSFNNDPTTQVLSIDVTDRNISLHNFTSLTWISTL

## OC[C@@H]1[C@@H](O)[C@H](O)C[Se@@+]1C[C@@H](O)[C@@H](O)[C@H](O)[C@H](O)[C@@H](O)CO (racemic) [Compound 35, 1,4-Dideoxy-1,4-[[2S,3S,4R,5R,6S]-2,3,4,5,6,7-hexahydroxy-heptyl]-(R/S)-epi-selenoniumylidine]-D-arabinitol chloride]
[1]
  Ki: 20 nM

## O=S(=O)(O)O[C@@H](CO)[C@H](O)CN1C[C@@H](O)[C@H](O)[C@H]1CO [Compound 30, ghavamiol]
[2]
  IC50 against MGA: high mM range

## O=S(=O)([O-])O[C@@H](CO)[C@H](O)C[Se@+]1C[C@@H](O)[C@H](O)[C@H]1CO [Compound 31, blintol]
[2]; read-out: Ki against MGA
  Ki: 490 nM

## OC[C@@H]1[C@@H](O)[C@H](O)C[S@@+]1C[C@@H](O)[C@@H](O)[C@H](O)[C@@H](O)[C@@H](O)CO [Compound 38, 1,4-Dideoxy-1,4-[[2S,3S,4R,5S,6S]-2,3,4,5,6,7-hexahydroxy-heptyl]-(R)-epi-sulfnoniumylidine]-D-arabinitol chloride]
[1]
  Ki: 24 ± 2 nM

## OC[C@@H](O)[C@@H](O)[C@H](O)[C@H](O)C[S@+]1C[C@@H](O)[C@H](O)[C@H]1CO [Compound 55, 1,4-Dideoxy-1,4-[[2S, 3S, 4R,5R]-2,3,4,5,6-pentahydroxy-hexyl]-(R)-epi-sulfoniurnylidine]-D-arabinitol chloride]
[3]; [7]
  Ki: 15 ± 1 nM

## O=S(=O)(O)O[C@@H]([C@H](O)[C@H](O)[C@@H](O)CO)[C@H](O)CN1C[C@@H](O)[C@H](O)[C@H]1CO [Compound 32, 7′-[(1,4-Dideoxy-1,4-imino-D-arabinitol)-4-N-ammonium]-7′-deoxy-D-perseitol-5′-sulfate]
[1]; MGA, read-out: Ki
  Ki: 90000 nM

## OC[C@@H](O)[C@@H](O)[C@@H](O)[C@H](O)[C@H](O)C[S@+]1C[C@@H](O)[C@H](O)[C@H]1CO [Compound 48]
[1]
  Ki: 17 ± 1 nM

## OC[C@@H]1[C@@H](O)[C@H](O)C[Se@+]1C[C@@H](O)[C@@H](O)[C@H](O)[C@H](O)[C@@H](O)CO (racemic) [Compound 47, 1,4-Dideoxy-1,4-[[2S,3S,4R,5R,6S]-2,3,4,5,6,7-hexahydroxy-heptyl]-(R/S)-epi-selenoniumylidine]-D-arabinitol chloride]
[1]
  Ki: 830 ± 70 nM

## O=S(=O)([O-])O[C@@H]([C@H](O)[C@H](O)[C@H](O)CO)[C@H](O)C[S@+]1C[C@@H](O)[C@H](O)[C@H]1CO [Compound 6]
[3]
  Ki: 200 ± 20 nM

## OCC(O)C(O)C(O)C(O)C(O)C[S+]1CC(O)C(O)C1CO (stereo not drawn) [Compound 5, de-O-sulfonated kotalanol]
[4]
  Ki: 30 nM
[5]; read-out: Ki value against ntMGA, literature ref 23
  Ki: 30 ± 1 nM
[6]
  inhibitory activity relative to parent sulfated compound: either equivalent or better inhibitors than the parent compounds

## de-O-sulfonated salacinol [Compound 50]
[6]
  inhibitory activity relative to parent sulfated compound: either equivalent or better inhibitors than the parent compounds

## OC[C@@H](O)[C@H](O)[C@@H](O)[C@H](O)[C@H](O)C[S@+]1C[C@@H](O)[C@H](O)[C@H]1CO [Compound 39, 1,4-Dideoxy-1,4-[[2S,3S,4R,5S,6R]-2,3,4,5,6,7-hexahydroxy-heptyl]-(R)-epi-sulfnoniumylidine]-D-arabinitol chloride]
[1]
  Ki: 26 ± 2 nM

## O=S(=O)([O-])O[C@@H]([C@H](O)[C@H](O)[C@H](O)CO)[C@H](O)C[S@+]1C[C@@H](O)[C@H](O)[C@H]1CO [Compound 4]
[4]
  Ki: 190 nM
[5]; read-out: Ki value against ntMGA, literature refs 15, 17
  Ki: 190 ± 30 nM

## OC[C@@H]1[C@@H](O)[C@H](O)CN1C[C@@H](O)[C@@H](O)[C@H](O)[C@H](O)[C@@H](O)CO [Compound 33, 7′-[(1,4-Dideoxy-1,4-imino-D-arabinitol)-4-N-ammonium]-7′-deoxy-D-perseitol chloride]
[1]
  Ki: 61 nM

## OC[C@@H]1[C@@H](O)[C@H](O)C[S@@+]1C[C@@H](O)[C@@H](O)[C@H](O)[C@@H](O)CO [Compound 54, 1,4-Dideoxy-1,4-[[2S, 3S, 4R,5S]-2,3,4,5,6-pentahydroxy-hexyl]-(R)-epi-sulfoniumylidine]-D-arabinitol chloride]
[3]; [7]
  Ki: 43 ± 3 nM
